Measurements: patent US10577363B2, “Substituted piperidine compounds” (EPIZYME, INC., priority 2014, dated 2020)

Experiments:
SMYD3 [1] = target: T1, SMYD3 (Homo sapiens (Human), UniProt Q9H7B4); assay: SMYD3 biochemical assay (SPA, 3H-SAM methylation of MEKK2 protein substrate); settings: average of n = 1 to n = 50; read-out: SMYD3 Biochem IC50
How it was run: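 Enzyme: untagged full-length human SMYD3 from E. coli; substrate GST-tagged MEKK2 from insect cells. Buffer 25 mM Tris-Cl pH 8.0, 1 mM TCEP, 0.005% BSG/Tween 20. 30 min compound–enzyme preincubation at RT; 3H-SAM/MEKK2 start; stop with cold SAM (100 uM final); SPA readout in cpm.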

SMYD3 [2] = target: T1, SMYD3; assay: SMYD3 cell assay (Trimethyl-MEKK2 In-Cell Western in 293T/17 cells); assay type: cell-based; settings: average of n = 1 to n = 50; read-out: SMYD3 Cell IC50
How it was run: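 In-Cell Western readout: methanol-fixed cells stained for trimethyl-MEKK2 and flag tag, ratio per well normalized to DMSO and background controls.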

T1 sequence (Q9H7B4 whole entry): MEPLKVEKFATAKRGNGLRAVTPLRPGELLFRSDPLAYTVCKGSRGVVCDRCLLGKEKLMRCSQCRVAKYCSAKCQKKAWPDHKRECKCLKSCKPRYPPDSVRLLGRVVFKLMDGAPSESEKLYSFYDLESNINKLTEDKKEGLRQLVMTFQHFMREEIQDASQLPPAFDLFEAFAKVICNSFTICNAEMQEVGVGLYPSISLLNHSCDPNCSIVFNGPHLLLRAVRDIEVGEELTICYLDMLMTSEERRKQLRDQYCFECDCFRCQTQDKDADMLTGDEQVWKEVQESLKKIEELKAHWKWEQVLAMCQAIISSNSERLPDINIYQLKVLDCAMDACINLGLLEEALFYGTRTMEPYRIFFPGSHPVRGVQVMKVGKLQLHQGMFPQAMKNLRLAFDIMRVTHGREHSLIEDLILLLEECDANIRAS

Row | Compound | IC50 (SMYD3 [1]) [µM] | IC50 (SMYD3 [2]) [µM]
1 | C[C@H]1CN(S(=O)(=O)N(C)C2CCNCC2)CC[C@H]1NC(=O)c1cc(C2CC2)on1 [compound 653, 5-cyclopropyl-N-((3S,4R)-3-methyl-1-(N-methyl-N-(piperidin-4-yl)sulfamoyl)piperidin-4-yl)isoxazole-3-carboxamide] | 0.055 | 0.328
2 | COCCN1CCC(CS(=O)(=O)N2CC[C@@H](NC(=O)c3cc(C4CC4)on3)[C@@H](C)C2)CC1 [compound 654, 5-cyclopropyl-N-((3S,4R)-1-(((1-(2-methoxyethyl)piperidin-4-yl)methyl)sulfonyl)-3-methylpiperidin-4-yl)isoxazole-3-carboxamide] | 0.056 | 0.34
3 | C[C@H]1CN(S(=O)(=O)CC2CCN(Cc3ccccc3)CC2)CC[C@H]1NC(=O)c1cc(C2CC2)on1 [compound 655, N-((3S,4R)-1-(((1-benzylpiperidin-4-yl)methyl)sulfonyl)-3-methylpiperidin-4-yl)-5-cyclopropylisoxazole-3-carboxamide] | 0.0564 | 0.497
4 | CN1CCN(S(=O)(=O)N2[C@@H]3CC[C@H]2C[C@@H](NC(=O)c2cc(C4CC4)on2)C3)CC1(C)C [compound 656, 5-cyclopropyl-N-((1R,3r,5S)-8-((3,3,4-trimethylpiperazin-1-yl)sulfonyl)-8-azabicyclo[3.2.1]octan-3-yl)isoxazole-3-carboxamide] | 0.0598 | 0.441
5 | CN(C1CCN(Cc2ccccc2)CC1)S(=O)(=O)N1[C@@H]2CC[C@H]1C[C@@H](NC(=O)c1cc(C3CC3)on1)C2 [compound 659, N-((1R,3r,5S)-8-(N-(1-benzylpiperidin-4-yl)-N-methylsulfamoyl)-8-azabicyclo[3.2.1]octan-3-yl)-5-cyclopropylisoxazole-3-carboxamide] | 0.0664 | 0.578
6 | CC1CN(S(=O)(=O)N2[C@@H]3CC[C@H]2C[C@@H](NC(=O)c2cc(C4CC4)on2)C3)CCN1C (stereo partly drawn) [compound 660, 5-cyclopropyl-N-((1R,3r,5S)-8-((3,4-dimethylpiperazin-1-yl)sulfonyl)-8-azabicyclo[3.2.1]octan-3-yl)isoxazole-3-carboxamide] | 0.0667 | 0.414
7 | O=C(N[C@H]1CCN(S(=O)(=O)CC2CCN(CCO)CC2)[C@@H](Cc2ccccc2)C1)c1cc(C2CC2)on1 [compound 662, N-((2S,4S)-2-benzyl-1-(((1-(2-hydroxyethyl)piperidin-4-yl)methyl)sulfonyl)piperidin-4-yl)-5-cyclopropylisoxazole-3-carboxamide] | 0.0801 | 1.55
8 | O=C(N[C@H]1C[C@H]2CC[C@@H](C1)N2S(=O)(=O)CCN1CCC(N2CCCCC2)C1)c1cc(C2CC2)on1 (stereo partly drawn) [compound 663, 5-cyclopropyl-N-((1R,3r,5S)-8-((2-(3-(piperidin-1-yl)pyrrolidin-1-yl)ethyl)sulfonyl)-8-azabicyclo[3.2.1]octan-3-yl)isoxazole-3-carboxamide] | 0.0851 | 0.67
9 | C[C@H]1CN(S(=O)(=O)NC2CCN(C)CC2)CC[C@H]1NC(=O)c1cc(C2CC2)on1 [compound 667, 5-cyclopropyl-N-((3S,4R)-3-methyl-1-(N-(1-methylpiperidin-4-yl)sulfamoyl)piperidin-4-yl)isoxazole-3-carboxamide] | 0.0969 | 0.731
10 | C[C@H]1CN(S(=O)(=O)N(C)C2CCN(C)CC2)CC[C@H]1NC(=O)c1cc(C2CC2)on1 [compound 668, 5-cyclopropyl-N-((3S,4R)-3-methyl-1-(N-methyl-N-(1-methylpiperidin-4-yl)sulfamoyl)piperidin-4-yl)isoxazole-3-carboxamide] | 0.101 | 0.576
11 | O=C(N[C@H]1C[C@H]2CC[C@@H](C1)N2S(=O)(=O)CCCNCCN1CCOCC1)c1cc(C2CC2)on1 [compound 670, 5-cyclopropyl-N-((1R,3r,5S)-8-((3-((2-morpholinoethyl)amino)propyl)sulfonyl)-8-azabicyclo[3.2.1]octan-3-yl)isoxazole-3-carboxamide] | 0.103 | 0.886
12 | CN(C)CCS(=O)(=O)N1[C@@H]2CC[C@H]1C[C@@H](NC(=O)c1cc(C3CC3)on1)C2 [compound 672, 5-cyclopropyl-N-((1R,3r,5S)-8-((2-(dimethylamino)ethyl)sulfonyl)-8-azabicyclo[3.2.1]octan-3-yl)isoxazole-3-carboxamide] | 0.104 | 0.388
13 | O=C(N[C@H]1C[C@H]2CCC[C@@H](C1)N2S(=O)(=O)CC1CCNCC1)c1cc(C2CC2)on1 [compound 673, 5-cyclopropyl-N-((1R,3r,5S)-9-((piperidin-4-ylmethyl)sulfonyl)-9-azabicyclo[3.3.1]nonan-3-yl)isoxazole-3-carboxamide] | 0.106 | 1.68
14 | C[C@H]1C[C@@H](NC(=O)c2cc(C3CC3)on2)CCN1S(=O)(=O)N(C)C1CCN(C)CC1 [compound 674, 5-cyclopropyl-N-((2S,4S)-2-methyl-1-(N-methyl-N-(1-methylpiperidin-4-yl)sulfamoyl)piperidin-4-yl)isoxazole-3-carboxamide] | 0.108 | 1.08
15 | C[C@@H]1C[C@H](NC(=O)c2cc(C3CC3)on2)CCN1S(=O)(=O)CC1CCN(CCN2CCOCC2)CC1 [compound 676, 5-cyclopropyl-N-((2R,4R)-2-methyl-1-(((1-(2-morpholinoethyl)piperidin-4-yl)methyl)sulfonyl)piperidin-4-yl)isoxazole-3-carboxamide] | 0.111 | > 10
16 | CN(C1CCNCC1)S(=O)(=O)N1[C@@H]2CCC[C@H]1C[C@@H](NC(=O)c1cc(C3CC3)on1)C2 [compound 678] | 0.113 | 2.66
17 | C[C@H]1C[C@@H](NC(=O)c2cc(C3CC3)on2)CCN1S(=O)(=O)N1CCN(C)C(C)(C)C1 [compound 680, 5-cyclopropyl-N-((2S,4S)-2-methyl-1-((3,3,4-trimethylpiperazin-1-yl)sulfonyl)piperidin-4-yl)isoxazole-3-carboxamide] | 0.119 | 0.592

Next, values leading:

Row | IC50 (SMYD3 [1]) [µM] | IC50 (SMYD3 [2]) [µM] | Compound
18 | 0.0511 | 0.339 | C[C@@H]1C[C@@H](NC(=O)c2cc(C3CC3)on2)CCN1S(=O)(=O)N1CCNCC1 [compound 652, 5-cyclopropyl-N-((2R,4S)-2-methyl-1-(piperazin-1-ylsulfonyl)piperidin-4-yl)isoxazole-3-carboxamide]
19 | 0.0634 | 0.634 | C[C@@H]1CN(C(=O)c2ccc(C(C)(C)N)cc2)[C@H](C)C[C@@H]1NC(=O)c1cc(C2CC2)on1 [compound 657, N-((2R,4S,5R)-1-(4-(2-aminopropan-2-yl)benzoyl)-2,5-dimethylpiperidin-4-yl)-5-cyclopropylisoxazole-3-carboxamide]
20 | 0.0647 | 1.4 | C[C@@H]1C[C@H](NC(=O)c2cc(C3CC3)on2)CCN1C(=O)c1ccc(CN2CCNCC2)cc1 [compound 658, 5-cyclopropyl-N-((2R,4R)-2-methyl-1-(4-(piperazin-1-ylmethyl)benzoyl)piperidin-4-yl)isoxazole-3-carboxamide]
21 | 0.0773 | 0.49 | C[C@@H]1CN(S(=O)(=O)N2CC[C@H](NC(=O)c3cc(C4CC4)on3)C[C@@H]2C)[C@@H](C)CN1 [compound 661, 5-cyclopropyl-N-((2S,4S)-1-(((2S,5R)-2,5-dimethylpiperazin-1-yl)sulfonyl)-2-methylpiperidin-4-yl)isoxazole-3-carboxamide]
22 | 0.0866 | 1.07 | C[C@@H]1C[C@H](NC(=O)c2cc(C3CC3)on2)CCN1C(=O)c1ccc([C@@H](C)N)cc1 [compound 664, N-((2R,4R)-1-(4-((R)-1-aminoethyl)benzoyl)-2-methylpiperidin-4-yl)-5-cyclopropylisoxazole-3-carboxamide]
23 | 0.0906 | 0.801 | C[C@@H]1CNCCN1S(=O)(=O)N1CC[C@H](NC(=O)c2cc(C3CC3)on2)C[C@@H]1C [compound 666, 5-cyclopropyl-N-((2S,4S)-2-methyl-1-(((R)-2-methylpiperazin-1-yl)sulfonyl)piperidin-4-yl)isoxazole-3-carboxamide]
24 | 0.102 | 0.398 | C[C@@H]1CN(S(=O)(=O)N2CC[C@H](NC(=O)c3cc(C4CC4)on3)C[C@@H]2C)CCN1C [compound 669, 5-cyclopropyl-N-((2S,4S)-1-(((R)-3,4-dimethylpiperazin-1-yl)sulfonyl)-2-methylpiperidin-4-yl)isoxazole-3-carboxamide]
25 | 0.104 | 5.58 | C[C@@H]1C[C@H](NC(=O)c2cc(C3CC3)on2)CCN1C(=O)c1ccc(OCCN)cc1 [compound 671, N-((2R,4R)-1-(4-(2-aminoethoxy)benzoyl)-2-methylpiperidin-4-yl)-5-cyclopropylisoxazole-3-carboxamide]
26 | 0.111 | 1.37 | CNCc1ccc(C(=O)N2CC[C@@H](NC(=O)c3cc(C4CC4)on3)C[C@H]2C)cc1 [compound 675, 5-cyclopropyl-N-((2R,4R)-2-methyl-1-(4-((methylamino)methyl)benzoyl)piperidin-4-yl)isoxazole-3-carboxamide]
27 | 0.111 | 5.31 | C[C@H]1C[C@@H](NC(=O)c2cc(C3CC3)on2)CCN1S(=O)(=O)N(C)CCN [compound 677, N-((2S,4S)-1-(N-(2-aminoethyl)-N-methylsulfamoyl)-2-methylpiperidin-4-yl)-5-cyclopropylisoxazole-3-carboxamide]
28 | 0.113 | 1.3 | C[C@H](N)c1ccc(C(=O)N2CC[C@@H](NC(=O)c3cc(C4CC4)on3)C[C@H]2C)cc1 [compound 679, N-((2R,4R)-1-(4-((S)-1-aminoethyl)benzoyl)-2-methylpiperidin-4-yl)-5-cyclopropylisoxazole-3-carboxamide]
